From the supplement of paper PMC10307832

How the values were obtained:
Experiment in all cases: relative viability (nuclei count vs DMSO), 5 days (fraction); higher = more cells survive
[1] = compound: CC(C)N(CCCNC(=O)Nc1ccc(C(C)(C)C)cc1)C[C@H]1O[C@@H](n2ccc3c(N)ncnc32)[C@H](O)[C@@H]1O + COc1cccc2cc(-c3nc([C@H]4CC[C@H](C(=O)O)CC4)n4ncnc(N)c34)[nH]c12 [OSI-027] (partner 0.5 µM)
Summary of the method: (§1)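 Medians of duplicate plates are given as relative viability. That measure is the nuclei count in treated wells divided by the count in vehicle wells. Counts were taken on 4× images of lung cancer cell lines in 1536-well plates, 5 days after pin-tool dosing the day after seeding with one drug alone or a fixed anchor-drug dose plus five library-drug doses (not always all listed) in √10 steps.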

[2] = compound: CC(C)N(CCCNC(=O)Nc1ccc(C(C)(C)C)cc1)C[C@H]1O[C@@H](n2ccc3c(N)ncnc32)[C@H](O)[C@@H]1O + O=C(c1cc(Cc2n[nH]c(=O)c3ccccc23)ccc1F)N1CCN(C(=O)C2CC2)CC1 [Olaparib] (partner 8 µM)
Summary of the method: as §1

[3] = compound: CC(C)=CC[C@@H](O)C1=CC(=O)c2c(O)ccc(O)c2C1=O [Shikonin] + COc1cc2c(Oc3ccc(NC(=O)C4(C(=O)Nc5ccc(F)cc5)CC4)cc3F)ccnc2cc1OCCCN1CCOCC1 [Foretinib] (partner 0.25 µM)
Summary of the method: as §1

[4] = compound: CC(C)=CC[C@@H](O)C1=CC(=O)c2c(O)ccc(O)c2C1=O [Shikonin] + CS(=O)(=O)CCNCc1ccc(-c2ccc3ncnc(Nc4ccc(OCc5cccc(F)c5)c(Cl)c4)c3c2)o1 [Lapatinib] (partner 2 µM)
Summary of the method: as §1

Cell Line | relative viability ([1]; first compound 0.08 µM) | relative viability ([1]; first compound 0.253 µM) | relative viability ([1]; first compound 0.8 µM) | relative viability ([1]; first compound 2.53 µM) | relative viability ([1]; first compound 8 µM) | relative viability ([2]; first compound 0.08 µM) | relative viability ([2]; first compound 0.253 µM) | relative viability ([2]; first compound 0.8 µM) | relative viability ([2]; first compound 2.53 µM) | relative viability ([2]; first compound 8 µM) | relative viability ([3]; first compound 0.01 µM) | relative viability ([3]; first compound 0.1 µM) | relative viability ([3]; first compound 0.3162 µM) | relative viability ([3]; first compound 1 µM) | relative viability ([4]; first compound 0.01 µM) | relative viability ([4]; first compound 0.1 µM) | relative viability ([4]; first compound 0.3162 µM) | relative viability ([4]; first compound 1 µM)
HCC-366 | 0.916 | 1.27 | 0.716 | 0.816 | 0.641 | 0.336 | 0.428 | 0.328 | 0.292 | 0.281 | 0.928 | 1.2 | 0.979 | 0.939 | 1.34 | 1.24 | 1.11 | 1.03
HCC-827 | 0.699 | 0.838 |  | 0.722 | 0.665 | 0.63 | 0.706 | 0.562 | 0.616 | 0.488 | 0.976 | 1.15 | 1.06 | 1.08 | 0.166 | 0.17 | 0.191 | 0.19
HOP-62 | 0.864 | 0.89 | 0.767 | 0.751 | 0.681 | 0.242 | 0.642 | 0.261 | 0.347 | 0.314 | 1.28 | 1.25 | 1.28 | 1.28 | 1.04 | 1.13 | 0.908 | 1.03
IA-LM |  |  |  |  |  | 0.776 | 0.956 | 0.937 | 0.931 | 0.686 | 1.14 | 1.42 | 1.32 | 1.15 | 1.11 |  | 0.81 | 0.679
LC-2-ad | 0.845 | 0.823 | 0.892 | 0.816 | 0.855 | 0.67 | 0.717 | 0.715 | 0.699 | 0.626 | 0.869 | 0.989 | 1.04 | 1.01 | 0.798 | 1.38 | 1.04 | 0.965
LCLC-97TM1 | 0.555 | 0.642 | 0.716 | 0.557 | 0.679 | 0.343 | 0.318 | 0.205 | 0.319 | 0.294 | 0.949 | 1.02 | 0.912 | 0.962 | 1.28 | 0.998 | 1.09 | 0.921
LCLC-103H | 0.447 | 0.58 | 0.495 | 0.451 | 0.467 | 0.734 | 0.697 | 0.699 | 0.77 | 0.775 | 0.875 | 0.847 | 0.953 | 0.942 |  |  |  | 
LK-2 | 0.235 | 0.277 | 0.215 | 0.236 | 0.213 | 0.713 | 0.544 | 0.771 | 0.632 | 0.82 | 1.15 | 1.31 | 1.85 | 1.16 | 1.26 | 1.06 | 1.22 | 1.06
LOU-NH91 | 0.734 | 0.714 | 0.666 | 0.689 | 0.728 | 0.886 | 0.86 |  | 0.984 | 0.899 | 0.955 | 0.934 | 1.04 | 0.9 | 0.802 | 0.839 | 0.811 | 0.823
LU99A | 0.317 | 0.327 | 0.329 | 0.377 | 0.254 | 0.322 | 0.252 | 0.264 | 0.275 | 0.237 | 0.854 | 0.815 | 0.797 | 0.744 | 1.1 | 1.32 | 0.881 | 0.891
LXF-289 | 0.791 | 0.797 | 0.852 | 0.828 | 0.742 | 1.02 | 1.08 | 1.1 | 1.1 | 0.991 | 0.987 | 1.02 | 0.998 | 0.972 | 0.959 | 1 | 0.906 | 0.945
NCI-H23 | 0.594 | 0.596 | 0.574 | 0.681 | 0.645 | 0.334 |  | 0.266 | 0.345 | 0.28 | 1.09 | 1.07 | 1.03 | 0.983 | 1.2 | 1.14 | 1.13 | 1.03
NCI-H441 | 0.589 | 0.587 |  | 0.735 | 0.661 | 0.558 | 0.632 |  | 0.544 | 0.573 | 0.941 | 1.17 | 0.849 | 1.04 |  |  |  | 
NCI-H522 | 0.58 | 0.895 | 0.848 | 0.643 | 0.809 | 0.754 | 0.636 | 0.583 | 0.623 | 0.732 |  |  |  |  |  |  |  | 
NCI-H1299 |  |  |  |  |  | 1.03 | 0.926 | 1 | 0.96 | 0.923 | 1.08 | 1.15 | 1.09 | 1.09 | 1.01 | 1.09 | 0.986 | 0.936
NCI-H1563 | 0.742 | 0.782 | 0.73 | 0.713 | 0.799 |  |  |  |  |  | 0.935 | 0.848 | 1.06 | 0.902 | 0.87 | 1.08 | 0.923 | 0.779
NCI-H1623 | 0.446 | 0.469 | 0.529 | 0.422 | 0.437 |  |  |  |  |  | 0.874 | 0.866 | 1.06 | 0.917 |  |  |  | 
NCI-H1648 | 0.277 | 0.258 | 0.247 | 0.247 | 0.293 | 0.866 | 1 | 1.03 | 0.909 | 0.826 |  |  |  |  |  |  |  | 
NCI-H1703 |  |  |  |  |  | 0.52 | 0.446 |  | 0.571 | 0.349 | 0.361 | 0.401 | 0.319 | 0.329 | 1.15 | 1.33 | 1.15 | 0.647
NCI-H1792 | 0.693 | 0.702 | 0.716 | 0.586 | 0.72 | 0.434 |  | 0.365 | 0.374 | 0.399 |  |  |  |  | 0.922 | 1.06 | 0.968 | 1.09
NCI-H2342 | 0.736 | 0.643 | 0.611 | 0.61 | 0.607 | 0.4 | 0.463 | 0.419 | 0.431 | 0.444 | 1 | 1.12 | 1.03 | 1.03 |  |  |  | 
SW 900 | 0.482 | 0.569 |  | 0.691 | 0.512 | 0.783 | 0.875 |  | 0.798 | 0.772 | 1.04 | 0.987 | 0.915 | 0.801 |  |  |  | 
